The source of these data is patent US6794397B2, “Substituted nicotinamides and analogs as activators of caspases and inducers of apoptosis and the use thereof” (Cytovia, Inc., priority 2000, dated 2004).

In test [1] the test system is T47D. Briefly: Caspase cascade activation assay (N-(Ac-DEVD)-N'-ethoxycarbonyl-R110 fluorogenic substrate) in T47D cells. It counts as cell-based, Human. Particulars: 24 h incubation; for EC50 / EC50 (nM) caspase potency: sigmoidal dose-response; for EC50: read-out: EC50 (nM) caspase potency; for Caspase activity Ratio: ratio of net RFU of test compound to control, 0.16 to 10 μM final. Here is the method:
(§1) Human breast cancer cell lines T47D and ZR75-1 were grown according to media component mixtures designated by American Type Culture Collection +10% FCS (Invitrogen Corporation, Life Technologies Division), in a 5% CO2 −95% humidity incubator at 37° C. T47D and ZR75-1 cells were maintained at a cell density between 30 and 80% confluency at a cell density of 0.1 to 0.6×10^6 cells/ml. Cells were harvested at 600xg and resuspended at 0.65×10^6 cells/ml into appropriate media +10% FCS. An aliquot of 45 μl of cells was added to a well of a 96-well microtiter plate containing 5 μl of a 10% DMSO in RPMI-1640 media solution containing 1.6 to 100 μM of N-(4-methoxy-2-nitrophenyl)-3-pyridinecarboxamide or other test compound (0.16 to 10 μM final). An aliquot of 45 μl of cells was added to a well of a 96-well microtiter plate containing 5 μl of a 10% DMSO in RPMI-1640 media solution without test compound as the control sample. The samples were mixed by agitation and then incubated at 37 C. for 24 h in a 5% CO2 −95% humidity incubator. After incubation, the samples were removed from the incubator and 50 μl of a solution containing 20 μM of N-(Ac-DEVD)-N′-ethoxycarbonyl-R110 (SEQ ID NO: 1) fluorogenic substrate (Cytovia, Inc.; WO99/18856), 20% sucrose (Sigma), 20 mM DTT (Sigma), 200 mM NaCl (Sigma), 40 mM Na PIPES buffer pH 7.2 (Sigma), and 500 μg/ml lysolecithin (Calbiochem) was added. The samples were mixed by agitation and incubated at room temperature. Using a fluorescent plate reader (Model 1420 Wallac Instruments), an initial reading (T=0) was made approximately 1-2 min after addition of the substrate solution, employing excitation at 485 nm and emission at 530 nm, to determine the background fluorescence of the control sample. After the 3 h incubation, the samples were read for fluorescence as above (T=3 h).
(§2) The Relative Fluorescence Unit values (RFU) were used to calculate the sample readings as follows:
(§3) RFU(T=3h)−Control RFU(T=0)=Net RFU(T=3h).
(§4) The activity of caspase cascade activation was determined by the ratio of the net RFU value for N-(4-methoxy-2-nitrophenyl)-3-pyridinecarboxamide or other test compound to that of control samples. The EC50 (nM) was determined by a sigmoidal dose-response calculation (Prism 2.0, GraphPad Software Inc.).

Test [2] has as its system ZR75-1. Briefly: Caspase cascade activation assay (N-(Ac-DEVD)-N'-ethoxycarbonyl-R110 fluorogenic substrate) in ZR75-1 cells. Particulars: for EC50 / EC50 (nM) caspase potency: sigmoidal dose-response; for EC50: read-out: EC50 (nM) caspase potency; for Caspase activity Ratio: ratio of net RFU of test compound to control, 0.16 to 10 μM final. It counts as cell-based, Human. The protocol: as §1, §2, §3, §4

Test [3] has as its system T47D. Briefly: Cell cycle arrest and apoptosis in T47D cells (propidium iodide flow cytometry). It counts as cell-based, Human. The following applies: 48 h. The protocol:
T47D, a breast cancer cell line, was maintained and harvested as described in Example 71. […] As a control, cells were also incubated with equivalent amount of solvent as control (DMSO). Cells were harvested at 1,200 rpm and washed twice with 5 mM EDTA/PBS. Cells were then resuspended in 300 μl EDTA/PBS and 700 μl of 100% ethanol, vortexed and incubated at room temperature for 1 h. Samples were spun down at 1,200 rpm for 5 min and the supernatant was removed. A solution containing 100 μg/ml of propidium iodide and 1 mg/ml of RNAse A (fresh) was added to the samples and incubated for 1 h at room temperature. Samples were then transferred to 12×75 mm polystyrene tubes and analyzed on a flow cytometer. All flow cytometry analyses were performed on FACScalibur (Becton Dickinson) using Cell Quest analysis software. On the x-axis is plotted the fluorescence intensity and on the y-axis is plotted the number of cells with that fluorescence intensity. […] An increase in the sub-diploid DNA content of cells (marker M1 region, FIG. 3) is also seen to increase from 2% to 25% with compound treatment. The sub-diploid amount of DNA (M1) is indicative of apoptotic cells which have undergone DNA degradation or fragmentation.

Test [4] has as its system HeLa cells. As to the kind of experiment: Inhibition of proliferation / colony formation of HeLa cells. It counts as cell-based. The following applies: Homo sapiens, 48 hr treatment, colonies counted after 5-7 days. Here is the method: HeLa cells were grown according to media component mixtures designated by American Type Culture Collection +10% FCS (Invitrogen Corporation, Life Technologies Division), in a 5% CO2 −95% humidity incubator at 37° C. In a well of a 96 well plate, 30,000 cells were seeded and treated with compound at the indicated concentrations for 48 hr in a 5% CO2−95% humidity incubator at 37° C. Control wells were treated with the same amount of solvent (DMSO) as the compound samples. After the indicated treatment time, the supernatant was removed to a sterile culture tube and the wells washed with phosphate buffered saline, and the adherent cells trypsinized for 5 min. The trypsinzed cells were added to the culture supernatant, cells were collected (1,200 rpm, 10 min), washed with phosphate buffered saline, and resuspended in fresh media. The cells were counted for trypan blue negative cells, and the cells were diluted with fresh media to 1,000 cells/ml. To a well of a 24-well plate, 0.1 ml of the cell suspension was added along with 1 ml of fresh media (cell suspensions were passed through a 22G needle several times just before plating to form single cell suspensions). […] Colonies are counted when the sizes reached greater than 50 cells per colony. […] Colonies are rinsed with water and the colonies counted and the fraction surviving expressed as the percentage of the number of control colonies.

The subject of test [5] is Jurkat cells. Briefly: Nuclear fragmentation in Jurkat cells (Syto16 staining). It counts as cell-based. Particulars: 5 μM, 24 h, Syto16 stain. The protocol: The ability of N-(4-methoxy-2-nitrophenyl)-3-pyridinecarboxamide to induce nuclear fragmentation was tested by treatment of Jurkat cells with the test compound followed by staining of the nucleus with Sytol6, a fluorescent DNA dye (Molecular Probes, Eugene, Oreg.). The nuclei of Jurkat cells treated with vehicle control (DMSO) are seen to be round with dispersed chromatin that is moderately stained with Sytol6 (FIG. 1A).

The test system of test [6] is Jurkat cells. As to the kind of experiment: Mitotic arrest in Jurkat cells (mitotic figures counted). It is filed as cell-based. Particulars: 0.02 μM to 5 μM, 6 h. Here is the method: Jurkat cells were incubated with a range of concentrations of N-(4-methoxy-2-nitrophenyl)-3-pyridinecarboxamide (0.02 μM to 5 μM) for 6 h under normal growth conditions; control cultures were treated with DMSO vehicle. The cells were then treated for 20 min. with 800 nM Syto 16 (Molecular Probes, Eugene, OR). Cytospin preparations were then prepared and the samples were viewed by fluorescent microscopy using a fluorescein filter set. For each concentration of test compound, the number of mitotic figures were counted and expressed as a percentage of the total number of cells. Three fields from each condition were evaluated and the mean and SEM were calculated and plotted as a function of drug concentration (FIG. 2).

[7] abbreviates: Homo sapiens, ZR-75-1, 24 h incubation.

“Also recorded” adds a separate entry of the source. Where two headings read alike, the source gives them in different places.

For `CCOc1ccc(NC(=O)c2ccc(Cl)nc2)c([N+](=O)[O-])c1` [Example 8, 6-Chloro-N-(4-ethoxy-2-nitrophenyl)-3-pyridinecarboxamide], in test [1] (Homo sapiens), the EC50 (as a rule, the concentration that produces a half-maximal response) turned out to be 153 nM. Moreover, in test [1], the “Caspase activity Ratio” value was 5.0. In test [2] (setting [7]), the 50% effective concentration (EC50) amounted to 77 nM. Further, the “Caspase activity Ratio” value in test [2] (24 h incubation) is on record as 6.3. For the same compound, in test [3] (1 μM), the “G1 (M2) cells” value was “a reduction in the G1(M2)”, the “G2/M phase (M4) cells” value is on record as “accumulation of T47D cells in the G2/M phase; also recorded: an increase in the G2/M (M4)” and the “sub-G1 / sub-diploid DNA content of cells (M1)” value is given as “increase substantially over control cells”. In test [4], the IC50 (commonly the concentration at which inhibition is half-maximal) is ~100 nM.

With `Cc1cc(NC(=O)c2ccc(Cl)nc2)c([N+](=O)[O-])cc1C` [Example 27, 6-Chloro-N-(4,5-dimethyl-2-nitrophenyl)-3-pyridinecarboxamide], the “EC50 (nM) caspase potency” value in test [1] and in test [2] (24 h incubation) was “Inactive” in each case. For the same compound, the “Caspase activity Ratio” value in test [1] and in test [2] (24 h incubation) was “Inactive” throughout.

On to `N#Cc1ccc(NC(=O)c2ccc(Cl)nc2)c([N+](=O)[O-])c1` [Example 21, 6-Chloro-N-(4-cyano-2-nitrophenyl)-3-pyridinecarboxamide], for which, in test [1], the “EC50 (nM) caspase potency” value is on record as “Inactive” and the “Caspase activity Ratio” value was “Inactive”. Besides, the concentration giving a half-maximal response (EC50) in test [2] (setting [7]) turned out to be 4670 nM. Moreover, the “Caspase activity Ratio” value in test [2] (24 h incubation) is 2.3.

Regarding `O=C(Nc1ccc(OC(F)(F)F)cc1[N+](=O)[O-])c1ccc(Cl)nc1` [Example 23, 6-Chloro-N-(2-nitro-4-tifluoromethoxyphenyl)-3-pyridinecarboxamide], in test [1], the concentration giving a half-maximal response (EC50) worked out at 608 nM and the “Caspase activity Ratio” value was 7.2. In addition, in test [2] (24 h incubation), the EC50 came to 171 nM and the “Caspase activity Ratio” value turned out to be 9.9.

Consider `COc1ccc(NC(=O)c2ccc(Cl)nc2)c(C)c1` [Example 20, 6-Chloro-N-(4-methoxy-2-methylphenyl)-3-pyridinecarboxamide], for which the “EC50 (nM) caspase potency” value in test [1] and in test [2] (24 h incubation) was “Inactive” throughout. Further, the “Caspase activity Ratio” value in test [1] and in test [2] (24 h incubation) was “Inactive” throughout.

Regarding `O=C(Nc1cc(F)c(F)cc1[N+](=O)[O-])c1ccc(Cl)nc1` [Example 19, 6-Chloro-N-(4,5-difluoro-2-nitrophenyl)-3-pyridinecarboxamide], the concentration for a half-maximal effect (EC50) in test [1] (Homo sapiens) came out at 3550 nM; in test [2] (setting [7]) it was 6880 nM. The “Caspase activity Ratio” value in test [1] was determined as 2.7; in test [2] (24 h incubation), 3.8.

Take `COc1ccc(NC(=O)c2ccc(Cl)nc2)cc1` [Example 11, 6-Chloro-N-(4-methoxyphenyl)-3-pyridinecarboxamide]: the “EC50 (nM) caspase potency” value in test [1] and in test [2] (24 h incubation) was “Inactive” throughout. Also, the “Caspase activity Ratio” value in test [1] and in test [2] (24 h incubation) was “Inactive” in each case.

On to `COc1ccc(NC(=O)c2cccnc2)c([N+](=O)[O-])c1` [Example 29, N-(4-Methoxy-2-nitrophenyl)-3-pyridinecarboxamide], for which the EC50 in test [1] (Homo sapiens) stood at 1800 nM. The “Caspase activity Ratio” value in test [1] amounted to 5.8. For the same compound, the EC50 in test [2] (setting [7]) amounted to 1000 nM. Also, the “Caspase activity Ratio” value in test [2] (24 h incubation) was 6.4. The “Nuclear fragmentation (nuclear morphology)” value in test [5] is “shrunken and fragmented nuclei”. In addition, the Mitotic arrest entry in test [6] is “effective inducer of mitotic arrest; also recorded: increasing percent of mitotic arrest with increasing drug concentration”. Also, in test [3] (10 μM), the “G1 (M2) cells” value is given as “a reduction in the G1(M2)”; the “G2/M DNA content (M4) cells” value was “increase in G2/M DNA content; also recorded: an increase in the G2/M (M4)”; the “sub-diploid DNA content of cells (M1), in words” value was “increase”. For the same compound, the “sub-diploid DNA content of cells (M1)” value in test [3] (10 μM, control 2%) came to 25%.
